Experimental findings from US20210393520A1, “TREATMENT OF GRAM-NEGATIVE FOLLICULITIS OR AN INFLAMMATION THEREOF WITH BESIFLOXACIN” (VYOME THERAPEUTICS LIMITED, priority 2018, published 2021) are described below.

Converted amounts (≈) assume the structure as drawn.

One data set relates to P. acnes V3-1. Kind of data set: MIC against bacteria isolated from acne lesions, Table 2. The format is cell-based, Propionibacterium acnes. Particulars: Cutibacterium acnes, V31; P. acnes V3-1, isolated from acne lesions; read-out: Minimum Inhibitory Concentration. As for the experimental part: (§1) MIC of besifloxacin and other antibiotics molecules were determined by micro broth dilution method as per the Clinical and Laboratory Standards Institute (CLSI) guideline. MIC assay is the determinant of the inherent anti-microbial potency of a particular molecule. For preparing inoculum, bacterial strains were cultured in Brain Heart Infusion Agar (BHIA) at 37° C. for 24 hours. […] For bacterial inoculum, bacterial culture turbidity was adjusted to 0.1 OD at 600 nm in UV-Visual spectrophotometer (approximately 1.5×10^8 cells/ml) and further diluted (100 times with sterile BHI broth). Diluted bacterial suspension (100 μl) was added to each well except sterility control wells (column 12 of 96 well plate). Column 11 of 96 well plate was used as growth control and vehicle control. The plates were incubated at 37° C. for 24 h. The MIC of the test compounds were determined by observing the lowest concentration of test compound that prevented the visual bacterial growth.
(§2) Different skin resident bacteria were isolated from acne lesions of moderate to severe acne patients.

The subject of data set [1] is skin resident bacteria isolated from acne lesions. As to the kind of experiment: MIC, summary statements on skin resident bacteria of acne patients. The data set is classed as cell-based. An excerpt:
Moreover, as the MIC values are low and within a narrow range, the chance of future resistance generation due to sub optimal drug delivery in skin is also substantially lower.
Different skin resident bacteria were isolated from acne lesions of moderate to severe acne patients. As expected, P. acnes and S. epidermidis were two most prevalent species. Members of the skin microbiomes were of diverse nature. Most of the genus were gram positive, but few of them, like Klebsiella, were gram negative. Most of them were aerobic, but few, like P. acnes, were anaerobic in nature. […] Even if they are present in low numbers in microbiomes, they can act as reservoirs of resistance against antibiotic of choice which may in the log run affect the prognosis of GNF.

A further data set deals with Blastococcus sp. S21A-2. The data set is classed as cell-based. The following applies: Blastococcus sp. S21A-2, isolated from acne lesions. The method, then: as §1, §2
Data set [2] is described as follows: Skin penetration/retention on human abdominal skin, Franz-type diffusion cells. Particulars: human epidermal membranes, 12 hr, approximately 10 mg/cm^2 of approximately 1.0% formulation. The format is in vitro ADME. As for the experimental part:
Besifloxacin gel and cream containing suspended besifloxacin were tested for skin retention study on human abdominal skin. Besifloxacin gel and cream were applied over a 12 hr application period. Heat-separated epidermal membranes from a single donor were mounted in horizontal Franz-type diffusion cells (exposed surface area 1.33 cm2) over a receptor solution of phosphate buffered saline, pH 7.4 containing 5% ethanol to facilitate solubilisation of any material penetrating the skin. Cells were maintained at 35° C. and receptor solution was stirred throughout. Formulations containing approximately 1.0% besifloxacin w/w and applied at a dose of approximately 10 mg/cm^2. The samples of the receptor solution were taken at times up to 12 hrs and extracts from surface swabs, stratum corneum tape strips and residual epidermis were obtained at the end of the experiment at 12 hrs. All samples were analysed by validated LCMS.
Besifloxacin gel containing suspended besifloxacin was tested for skin retention study on human abdominal skin. Testing procedure was similar to example 27.

Another data set concerns Enterobacter sp. 2. Kind of data set: MIC, micro broth dilution in Muller Hinton broth (CLSI), Table 1B. The data set is classed as cell-based. Particulars: read-out: Minimum Inhibitory Concentration. The method, then: (§3) Besifloxacin HCL was tested against ampicillin and cefotaxime (3rd generation cephalosporin) susceptible and resistant gram-negative bacterial strains involved in GNF (gram negative folliculitis) by broth dilution method as per the Clinical & Laboratory Standards Institutes (CLSI) guidelines. MIC assay was performed in 96 well plates by micro broth dilution method, in 96 well plates, all the wells were added with 100 μl of sterilized Muller Hinton broth No: 2 cation broth (HiMedia, India). The initial stock of test compounds (1 mg/ml) were prepared in dimethyl sulfoxide (DMSO) and further dilutions were made in culture broth to get the desirable concentration. Then 100 μl of broth containing test compounds were initially added to the first column's wells and then serial dilution was performed up to well of 10th column. Wells of 11th and 12th column served as a positive and negative control respectively. Finally, 100 μl of inoculum (0.5 McFarland equal bacterial suspension was 100 times diluted in culture broth) was added to all the wells. Plates were incubated at 37° C. for 18-24 hrs. After incubation, MIC of each test compound was determined by observing the lowest concentration of test compound that has no visual growth compared to growth control. Minimum inhibitory concentration of besifloxacin, ampicillin and cefotaxime against gram negative bacterial strains were shown in Table 1.

The subject of another data set is Enterobacter sp. 523. The description is as above. Particulars: read-out: Minimum Inhibitory Concentration. The data set is classed as cell-based. The method, then: as §3
A further data set concerns Klebsiella sp. 512. The description is as above. The format is cell-based. Particulars: read-out: Minimum Inhibitory Concentration. The method, then:
as §3

The next data set has as its system Pseudomonas sp. 556. The description is as above. Particulars: read-out: Minimum Inhibitory Concentration. The format is cell-based. The method, then:
as §3

The subject of another data set is Acinetobacter sp. 488. The data set is described as above. The data set is classed as cell-based. The following applies: read-out: Minimum Inhibitory Concentration. The method, then: as §3
Another data set deals with Escherichia coli 591. The description is as above. The format is cell-based. Particulars: read-out: Minimum Inhibitory Concentration. As for the experimental part: as §3
The next data set concerns Klebsiella sp. 498. Described as above. The following applies: read-out: Minimum Inhibitory Concentration. The data set is classed as cell-based. The method, then: as §3
A further data set concerns Enterobacter sp. 532. The description is as above. The format is cell-based. The following applies: read-out: Minimum Inhibitory Concentration. As for the experimental part:
as §3

Data set [3] concerns K. pneumoniae ATCC 13883 (wild type). Kind of data set: MIC, micro broth dilution (CLSI), Table 1A. The format is cell-based. The following applies: Klebsiella pneumoniae, ATCC13883. As for the experimental part:
as §1
For orientation: Dilution methods test growth across graded concentrations, often in twofold steps.

Data set [4] has as its system E. coli MTCC 1687 (wild type). As to the kind of experiment: MIC, micro broth dilution (CLSI), Table 1A. The data set is classed as cell-based. Particulars: Escherichia coli, MTCC1687. The method, then:
as §1

Data set [5] relates to A. baumannii CCARM 12020 (multi-drug resistant, quinolone susceptible). Kind of data set: MIC, micro broth dilution (CLSI), Table 1A. The data set is classed as cell-based. The following applies: Acinetobacter baumannii, CCARM12020. The method, then:
as §1

Data set [6] concerns A. haumannii ATCC 19606 (wild type). As to the kind of experiment: MIC, micro broth dilution (CLSI), Table 1A. The data set is classed as cell-based. Particulars: Acinetobacter baumannii, ATCC19606. As for the experimental part:
as §1

The subject of data set [7] is E. coli ATCC BAA 196 (multi-drug resistant strain). As to the kind of experiment: MIC, micro broth dilution (CLSI), Table 1A. The format is cell-based. Particulars: Escherichia coli, BAA196. The method, then: as §1
The subject of data set [8] is A. baumannii CCARM 12001 (Quinolone resistant strain). As to the kind of experiment: MIC, micro broth dilution (CLSI), Table 1A. The data set is classed as cell-based. Particulars: Acinetobacter baumannii, CCARM12001. The method, then: as §1
Data set [9] has as its system P. aeruginosa ATCC 27853 (wild type). Kind of data set: MIC, micro broth dilution (CLSI), Table 1A. The format is cell-based. The following applies: Pseudomonas aeruginosa, ATCC27853. As for the experimental part:
as §1

For data set [10], the system named is P. aeruginosa CCARM 2204 (multi-drug resistant, quinolone susceptible). As to the kind of experiment: MIC, micro broth dilution (CLSI), Table 1A. The format is cell-based. The following applies: Pseudomonas aeruginosa, CCARM2204. The method, then: as §1

Take `N[C@@H]1CCCCN(c2c(F)cc3c(=O)c(C(=O)O)cn(C4CC4)c3c2Cl)C1` [Besifloxacin]: the MIC with P. acnes V3-1 was found to be 0.5 µg/mL (≈ 1.27 µM); in the data set on Enterobacter sp. 2, 1 µg/mL (≈ 2.54 µM); with Enterobacter sp. 523, 0.5 µg/mL (≈ 1.27 µM); with Klebsiella sp. 512 it was 0.25 µg/mL (≈ 0.635 µM); in the data set on Pseudomonas sp. 556, 1 µg/mL (≈ 2.54 µM); in the data set on Acinetobacter sp. 488, 2 µg/mL (≈ 5.08 µM). The MIC was 0.125 µg/mL (≈ 0.317 µM) in the data set on Escherichia coli 591; 16 µg/mL (≈ 40.6 µM) with Klebsiella sp. 498; 16 µg/mL (≈ 40.6 µM) in the data set on Enterobacter sp. 532; 0.25 µg/mL (≈ 0.635 µM) in data set [3]; 0.125 µg/mL (≈ 0.317 µM) in data set [4]; 4 µg/mL (≈ 10.2 µM) in data set [5]. Also, the MIC in data set [6] was 1 µg/mL (≈ 2.54 µM); in [7], 1 µg/mL (≈ 2.54 µM); in [8], 2 µg/mL (≈ 5.08 µM); in data set [9], 0.5 µg/mL (≈ 1.27 µM); in data set [10] it was 4 µg/mL (≈ 10.2 µM). Moreover, the “Activity against skin resident bacteria isolated from acne lesions (in words)” value in data set [1] (Table 2 isolates) is reported as “potent antibacterial activity”. For the same compound, in data set [1] (micro broth dilution assay, acne patients or healthy individuals), the “isolates demonstrating resistance to besifloxacin” value is “none”. Further, in the data set on Blastococcus sp. S21A-2, the “Minimum Inhibitory Concentration” value was 0.06 µg/mL. In [2], the “besifloxacin recovered from receptor solution” value is “negligible amounts”.
